Measurements published in patent US5436231A, “Adenophostins” (Sankyo Company, Limited, priority 1991, dated 1995).

Experiments:
[1] = system: endoplasmic reticulum (microsome) of rat cerebellum; assay: 45Ca++ releasing activity from the endoplasmic reticulum; format: biochemical; conditions: 1 minute after addition, 30° C., pH 7.2; for calcium ion released of that incorporated into the endoplasmic reticulum: compound at 10 nM
Experimental: (§1) Adenophostins A and B were characterized by their inhibitory activity on [^3 H]-InsP3 binding to rat cerebellar InsP3 receptors, and the ^45 Ca^++ releasing activity from the endoplasmic reticulum, which was prepared from rat cerebellum.
^45 Ca^++ Releasing activity from the endoplasmic reticulum
The ^45 Ca^++ releasing activity from the endoplasmic reticulum was assayed using the method reported by Supattapone et al. [Proc. Natl, Acad. Sci. USA 85, 8747-8750 (1988)] with slight modifications.
The endoplasmic reticulum (microsome) of rat cerebellum was suspended in 10 mM of a HEPES-KOH buffer (pH 7.2) containing 100 mM of potassium chloride, 2.5 mM of magnesium chloride, 1 mM of dithiothreitol (DTT), 10 mM of creatine phosphate, creatine kinase (10 units/ml), 2 μg/ml of oligomycin, 50 μM of calcium chloride containing 1 μCi/ml of ^45 Ca, and 0.12 mM of ethylene glycol bis(2-aminoethyl ether)-N,N,N',N'-tetraacetic acid (EGTA), and the protein concentration in the suspension was adjusted to 0.5 mg/ml. 1 mM of adenosine triphosphate magnesium salt was added to 1 ml of this suspension, and the mixture was incubated for 11 minutes at 30° C. in order to incorporate the ^45 Ca^++ into the endoplasmic reticulum. InsP3, adenophostin A or adenophostin B was then added to release the incorporated ^45 Ca^++ from the endoplasmic reticulum. 10 minutes after the addition of the adenosine triphosphate magnesium salt (1 minute before the addition of the adenophostins or InsP3), and then 12 minutes after the addition of the adenosine triphosphate magnesium salt (1 minute after the addition of the adenophostins or InsP3), 100 μl of the reaction solution was removed, and the sampled solution was filtered through a Milipore filter (HA, […], Product of Milipore) to collect the. endoplasmic reticulum on the filter. The filter was washed with 4 ml of a 10 mM HEPES-KOH buffer (pH 7.2) containing 100 mM of potassium chloride and 1 mM of EGTA, and the radioactivity on the filter was determined by the addition of 5 ml of Pico-flow (a trade name for a product of Packard Co.) agents.

[2] = Solubility; format: physicochemical; conditions: for Solubility in lower alcohols: such as methanol or ethanol
[3] = target: T1, rat cerebellar InsP3 receptors (Rattus norvegicus, UniProt P29994); assay: Inhibitory activity on [3H]-InsP3 binding to InsP3 receptors; conditions: rat cerebellar membrane fraction; 10 nM [3H]-InsP3; 5 minutes, room temperature; pH 8.0; read-out: IC50 (concentration required to inhibit the binding of [3H]-InsP3 by 50%)
T1 construct: A rat cerebellar membrane fraction was homogenized; from tissue; host or cells: rat cerebellum, membrane fraction
Experimental: as §1
Inhibitory activity on [^3 -H]-InSP3 binding to InsP3 receptors
The inhibitory activity of [^3 H]-InsP3 binding was assayed according to the method of Worley et al. [J. Biol. Chem. 262, 12132-12136 (1987)].
A rat cerebellar membrane fraction was homogenized in 50 mM of Tris-HC1 (pH 8.0) and 1 mM of ethylenediaminetetraacetic acid, and the protein concentration in the homogenized material was adjusted to 0.6 mg/ml. 1 ml of this cerebellar homogenate was taken and 10 nM of [^3 H]-InsP3and either adenophostin A or adenophostin B were added to it. The mixture was incubated for 5 minutes at room temperature, and then centrifuged for 5 minutes at 12,000 rpm at a temperature of 4° C. The supernatant was removed and the precipitated cerebellar membrane fraction was dissolved in 5 ml of Pico-flow (a trade name for a product of Packard Co.) to determine its radioactivity. The bound [^3 H]-InsP3 was then determined.
IC50 indicates the concentration required to inhibit the binding of [^3 H]-InsP3 by 50%.

T1 sequence (P29994 whole entry): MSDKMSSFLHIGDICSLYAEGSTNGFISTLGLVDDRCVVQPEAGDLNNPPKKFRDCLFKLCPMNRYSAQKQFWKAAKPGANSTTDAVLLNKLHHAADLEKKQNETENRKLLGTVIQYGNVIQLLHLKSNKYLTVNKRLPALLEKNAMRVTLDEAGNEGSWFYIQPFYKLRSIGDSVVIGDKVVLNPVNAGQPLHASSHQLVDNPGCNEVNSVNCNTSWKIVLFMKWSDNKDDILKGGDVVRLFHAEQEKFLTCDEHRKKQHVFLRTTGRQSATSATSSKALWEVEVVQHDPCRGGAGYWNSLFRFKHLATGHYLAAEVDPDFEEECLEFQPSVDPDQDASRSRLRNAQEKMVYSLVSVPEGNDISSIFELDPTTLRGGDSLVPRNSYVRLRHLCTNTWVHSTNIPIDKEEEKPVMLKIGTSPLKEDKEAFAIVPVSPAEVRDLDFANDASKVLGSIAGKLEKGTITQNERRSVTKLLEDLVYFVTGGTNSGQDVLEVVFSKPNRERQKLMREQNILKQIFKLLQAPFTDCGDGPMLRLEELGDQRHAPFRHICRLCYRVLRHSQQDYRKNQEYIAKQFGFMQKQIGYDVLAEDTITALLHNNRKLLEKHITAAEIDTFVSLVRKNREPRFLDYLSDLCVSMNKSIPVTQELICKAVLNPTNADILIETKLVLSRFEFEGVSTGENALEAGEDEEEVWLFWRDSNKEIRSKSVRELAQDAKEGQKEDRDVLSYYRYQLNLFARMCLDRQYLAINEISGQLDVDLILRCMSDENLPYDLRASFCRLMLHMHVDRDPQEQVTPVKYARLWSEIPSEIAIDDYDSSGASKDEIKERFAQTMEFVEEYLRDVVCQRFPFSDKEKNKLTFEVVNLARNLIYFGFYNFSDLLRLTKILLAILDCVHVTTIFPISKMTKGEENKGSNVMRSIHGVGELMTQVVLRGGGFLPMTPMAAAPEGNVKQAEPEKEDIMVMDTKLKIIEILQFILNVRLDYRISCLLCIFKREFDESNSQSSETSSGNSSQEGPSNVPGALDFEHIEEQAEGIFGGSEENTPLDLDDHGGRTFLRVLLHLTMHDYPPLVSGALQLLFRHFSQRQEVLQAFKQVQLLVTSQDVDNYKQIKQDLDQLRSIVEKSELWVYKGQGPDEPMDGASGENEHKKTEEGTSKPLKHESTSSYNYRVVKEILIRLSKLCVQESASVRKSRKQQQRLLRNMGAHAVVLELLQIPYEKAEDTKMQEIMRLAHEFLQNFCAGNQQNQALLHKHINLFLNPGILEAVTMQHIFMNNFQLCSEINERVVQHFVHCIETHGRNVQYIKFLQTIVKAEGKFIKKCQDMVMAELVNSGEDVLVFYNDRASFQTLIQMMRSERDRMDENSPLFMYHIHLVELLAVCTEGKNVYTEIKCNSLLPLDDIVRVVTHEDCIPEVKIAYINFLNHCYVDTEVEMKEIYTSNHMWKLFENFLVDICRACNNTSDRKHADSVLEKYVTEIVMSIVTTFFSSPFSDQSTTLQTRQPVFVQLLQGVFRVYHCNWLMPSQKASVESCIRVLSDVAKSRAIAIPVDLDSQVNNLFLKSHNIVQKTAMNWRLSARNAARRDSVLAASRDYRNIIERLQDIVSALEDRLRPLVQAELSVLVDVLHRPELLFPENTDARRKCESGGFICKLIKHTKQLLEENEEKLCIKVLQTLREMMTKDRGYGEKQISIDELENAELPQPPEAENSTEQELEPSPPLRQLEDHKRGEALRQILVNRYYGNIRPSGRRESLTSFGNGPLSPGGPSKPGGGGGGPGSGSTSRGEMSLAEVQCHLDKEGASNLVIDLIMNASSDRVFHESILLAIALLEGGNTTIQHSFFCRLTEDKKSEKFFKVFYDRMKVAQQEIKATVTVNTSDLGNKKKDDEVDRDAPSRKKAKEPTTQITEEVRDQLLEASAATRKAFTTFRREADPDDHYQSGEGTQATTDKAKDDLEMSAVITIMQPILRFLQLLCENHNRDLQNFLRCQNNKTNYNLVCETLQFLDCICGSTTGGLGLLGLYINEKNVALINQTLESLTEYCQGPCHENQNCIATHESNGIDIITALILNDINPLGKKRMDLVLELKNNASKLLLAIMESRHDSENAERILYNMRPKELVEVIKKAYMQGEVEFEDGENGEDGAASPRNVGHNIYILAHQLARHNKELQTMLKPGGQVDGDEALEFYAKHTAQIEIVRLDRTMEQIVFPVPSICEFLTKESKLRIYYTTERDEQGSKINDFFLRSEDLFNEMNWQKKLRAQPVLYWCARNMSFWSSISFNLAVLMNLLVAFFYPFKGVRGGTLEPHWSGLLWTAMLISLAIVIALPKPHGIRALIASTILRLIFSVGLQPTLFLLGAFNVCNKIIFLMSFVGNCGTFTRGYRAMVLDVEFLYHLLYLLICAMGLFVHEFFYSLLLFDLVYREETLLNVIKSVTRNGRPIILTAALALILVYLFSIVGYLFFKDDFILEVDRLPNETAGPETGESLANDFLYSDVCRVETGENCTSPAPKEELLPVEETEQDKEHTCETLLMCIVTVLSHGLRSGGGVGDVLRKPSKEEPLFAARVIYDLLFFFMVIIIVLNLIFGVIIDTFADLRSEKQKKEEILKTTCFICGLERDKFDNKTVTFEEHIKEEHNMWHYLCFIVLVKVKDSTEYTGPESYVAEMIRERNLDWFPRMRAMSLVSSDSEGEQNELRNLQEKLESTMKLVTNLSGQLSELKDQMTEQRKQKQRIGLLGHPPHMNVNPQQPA

SMILES: O=P(O)(O)O[C@@H]1[C@H](O)[C@H](O)[C@@H](OP(=O)(O)O)[C@H](OP(=O)(O)O)[C@H]1O [InsP3, inositol 1,4,5-trisphosphate, reference compound]
- calcium ion released of that incorporated into the endoplasmic reticulum (adenophostin activities at 10 nM stated equal to that of InsP3) ([1]; InsP3 at 10 μM): 35%

SMILES: Nc1ncnc2c1ncn2[C@@H]1O[C@H](CO)[C@@H](O[C@H]2O[C@H](CO)[C@@H](OP(=O)(O)O)[C@H](OP(=O)(O)O)[C@H]2O)[C@H]1OP(=O)(O)O [adenophostin A]
- Solubility in acetone, ethyl acetate or chloroform [2]: insoluble
- Solubility in lower alcohols [2]: slightly soluble
- Solubility in water and dimethyl sulfoxide [2]: Soluble
- calcium ion released of that incorporated into the endoplasmic reticulum [1]: 35%
- IC50 [3]: 6 nM

SMILES: CC(=O)OC[C@H]1O[C@H](O[C@H]2[C@@H](OP(=O)(O)O)[C@H](n3cnc4c(N)ncnc43)O[C@@H]2CO)[C@H](O)[C@@H](OP(=O)(O)O)[C@@H]1OP(=O)(O)O [adenophostin B]
- Solubility in acetone, ethyl acetate or chloroform [2]: insoluble
- Solubility in lower alcohols [2]: slightly soluble
- Solubility in water and dimethyl sulfoxide [2]: Soluble
- calcium ion released of that incorporated into the endoplasmic reticulum [1]: 35%
- IC50 [3]: 8 nM
